Reference: the supplement of paper PMC10721915

Tests used:
Experiment in all cases: relative cell growth vs untreated control (GI, NCI-DTP normalisation with time-zero) (fraction of control growth); higher = more growth / less inhibition
Details in all cases: treatment time: 120 h
A204 = system: A204
Description: (§1)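 Cancer cell lines in 96-well plates were treated 48 h after seeding with M4076 (ATM inhibitor) and berzosertib (ATR inhibitor), alone or mixed, in 4-fold dilutions for 120 h. Protein was read by sulforhodamine B staining, background-subtracted and normalised NCI-DTP style to untreated control growth. Rows with one concentration equal to 0 are monotherapy.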

HEPG2 = system: HEPG2
Description: as §1

HT1080 = system: HT1080
Description: as §1

HT29 = system: HT29
Description: as §1

IGROV1 = system: IGROV1
Description: as §1

MDAMB435 = system: MDAMB435
Description: as §1

MV411 = system: MV411
Description: as §1

RAMOS = system: RAMOS
Description: as §1

SW620 = system: SW620
Description: as §1

U2OS = system: U2OS
Description: as §1

COc1cc2ncc3c(c2cc1-c1cn(C)nc1C)n(-c1c(F)cncc1OC)c(=O)n3C [M4076] + CNCc1ccc(-c2cc(-c3nc(-c4ccc(S(=O)(=O)C(C)C)cc4)cnc3N)on2)cc1 [berzosertib]
relative cell growth
Details	A204	HEPG2	HT29	HT1080	IGROV1	MDAMB435	MV411	RAMOS	SW620	U2OS
concentration of first compound 0.0195 µM, concentration of partner 0 M	1.25	1.41	1.3	1.1	1.27	1.09	1.23	1.04	1.08	1.1
concentration of first compound 0.0195 µM, concentration of partner 0.2 µM	0.675	0.0154	0.0171	0.762	0.543	1.01	1.18	1.14	0.95	0.876
concentration of first compound 0.0781 µM, concentration of partner 0 M	1.16	1.4	1.23	0.574	1.36	1.09	1.28	1.12	1.09	1.09
concentration of first compound 0.0781 µM, concentration of partner 0.2 µM	0.9	0.000629	0.0537	0.753	0.527	1.05	1.09	1.17	0.848	0.865
concentration of first compound 0.313 µM, concentration of partner 0 M	1.1	1.23	1.19	0.481	1.18	1.04	1.24	1.01	1.01	0.972
concentration of first compound 0.313 µM, concentration of partner 0.2 µM	0.654	-0.027	0.00799	-0.0371	0.376	0.622	0.887	1.12	0.449	0.504
concentration of first compound 1 µM, concentration of partner 0 M	0.83	0.829	0.888	0.54	0.9	0.988	0.903	0.888	0.958	0.916
concentration of first compound 1 µM, concentration of partner 0.0195 µM	0.965	0.596	0.81	0.752	0.964	1.01	1.22	0.918	0.922	0.798
concentration of first compound 1 µM, concentration of partner 0.0781 µM	0.785	0.0729	0.27	0.155	0.604	0.701	1.18	0.945	0.646	0.611
concentration of first compound 1 µM, concentration of partner 0.313 µM	0.205	-0.0203	-0.0312	-0.168	0.0905	0.14	0.312	0.751	0.168	0.191
concentration of first compound 1 µM, concentration of partner 1.25 µM	-0.0708	-0.023	-0.0506	-0.178	-0.0208	-0.00922	-0.0158	0.0625	0.0263	-0.111
concentration of first compound 1 µM, concentration of partner 5 µM	-0.102	-0.0325	-0.0437	-0.234	-0.0274	-0.0254	-0.0221	0.0153	-0.014	-0.131
concentration of first compound 1.25 µM, concentration of partner 0 M	0.914	1.16	1.11	0.332	1.02	1.03	1.09	0.914	0.96	0.935
concentration of first compound 1.25 µM, concentration of partner 0.2 µM	0.685	-0.0218	0.00308	-0.114	0.327	0.411	0.746	1.09	0.293	0.312
concentration of first compound 5 µM, concentration of partner 0 M	0.524	0.843	0.933	0.478	0.48	0.92	0.708	0.778	0.916	0.852
concentration of first compound 5 µM, concentration of partner 0.2 µM	0.337	-0.0276	-0.00294	-0.101	0.0986	0.185	0.603	0.915	0.269	0.229
